The target of this test is mCB2 (membranes from HEK293 cells expressing mouse CB2) (Mus musculus, UniProt P47936). Kind of test: Mouse CB2 binding assay, [3H]CP-55,940 competition. The note with it: CB2 over CB1.

Each structure is given as a SMILES string.

mCB2 (membranes from HEK293 cells expressing mouse CB2), sequence (P47936 whole entry): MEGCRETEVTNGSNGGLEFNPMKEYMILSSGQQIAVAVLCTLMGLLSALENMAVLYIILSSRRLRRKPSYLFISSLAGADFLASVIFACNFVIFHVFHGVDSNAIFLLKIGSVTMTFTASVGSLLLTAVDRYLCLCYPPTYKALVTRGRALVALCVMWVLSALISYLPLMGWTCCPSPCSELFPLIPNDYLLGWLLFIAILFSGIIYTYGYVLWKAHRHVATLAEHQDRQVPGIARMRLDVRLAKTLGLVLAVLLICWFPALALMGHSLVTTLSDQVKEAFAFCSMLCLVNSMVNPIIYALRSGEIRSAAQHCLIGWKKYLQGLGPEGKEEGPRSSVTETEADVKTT

Regarding `CC1(C)Oc2cc(C34CC5CC(CC(C5)O3)C4)cc(O)c2[C@@H]2C[C@H](O)CC[C@H]21` [compound 16], the “selectivity for CB2” value was determined as 2 fold.
